Source: patent publication US20070128217A1 (priority 2003, published 2007)

Legend:
[1] = system: antibodies in sera from SARS patients (sera 1a, 1b, 2, 6, 37, 62, London, SARS-yellow, SARS-green); format: binding, human; design: Binding of serum 6 to linear peptides of protein X1 of SARS-CoV Urbani / Binding of serum 37 to linear peptides of protein X1 of SARS-CoV Urbani / Binding of serum 6 to looped/cyclic peptide (PEPSCAN-ELISA) / Binding of serum 37 to looped/cyclic peptide (PEPSCAN-ELISA) / Binding of serum 37 to looped/cyclic peptides of protein X1 of SARS-CoV Urbani / Binding of serum 6 to linear peptides of protein X2 / Binding of serum 37 to linear peptides of protein X2 / Binding of serum 37 to looped/cyclic peptides of protein X2 of SARS-CoV Urbani / Binding of serum 6 to linear peptides of protein M of SARS-CoV Urbani / Binding of serum 37 to linear peptides of protein M of SARS-CoV Urbani / Binding of serum 6 to looped/cyclic peptides of protein M of SARS-CoV Urbani / Binding of serum 37 to looped/cyclic peptides of protein M of SARS-CoV Urbani / Binding of serum 6 to linear peptides of protein X3 of SARS-CoV Urbani / Binding of serum 37 to linear peptides of protein X3 of SARS-CoV Urbani / Binding of serum 37 to looped/cyclic peptides of protein X3 of SARS-CoV Urbani / Binding of serum 6 to linear peptides of protein X4 of SARS-CoV Urbani / Binding of serum 37 to linear peptides of protein X4 of SARS-CoV Urbani / Binding of serum 37 to looped/cyclic peptides of protein X4 of SARS-CoV Urbani / Binding of serum 6 to linear peptides of protein X5 of SARS-CoV Urbani / Binding of serum 37 to linear peptides of protein X5 of SARS-CoV Urbani / Binding of serum 37 to looped/cyclic peptides of protein X5 of SARS-CoV Urbani / Binding of serum 6 to linear peptides of protein N of SARS-CoV Urbani / Binding of serum 37 to linear peptides of protein N of SARS-CoV Urbani / Binding of serum 6 to linear peptide (PEPSCAN-ELISA) / Binding of serum 1a to looped/cyclic peptides of protein N of SARS-CoV Urbani / Binding of serum 1b to looped/cyclic peptides of protein N of SARS-CoV Urbani / Binding of serum 2 to looped/cyclic peptides of protein N of SARS-CoV Urbani / Binding of serum 6 to looped/cyclic peptides of protein N of SARS-CoV Urbani / Binding of serum 37 to looped/cyclic peptides of protein N of SARS-CoV Urbani / Binding of serum 62 to looped/cyclic peptides of protein N of SARS-CoV Urbani / Binding of serum London to looped/cyclic peptides of protein N of SARS-CoV Urbani / Binding of serum SARS-green to looped/cyclic peptides of protein N of SARS-CoV Urbani: unit not given here
[2] = system: control sera (pooled serum of ten healthy LUMC hospital workers; commercial negative donor pooled serum from the Dutch bloodbank); format: binding, human; design: Binding of Control serum LUMC to linear peptides / Binding of Control serum Blood-bank to linear peptides / Binding of Control serum LUMC to looped peptides / Binding of Control Serum Blood-Bank to Looped peptides / Binding of Control serum LUMC to linear peptides of the protein M of SARS-CoV Urbani / Binding of Control serum Blood-bank to linear peptides of the protein M of SARS-CoV Urbani / Binding of Control serum LUMC to looped peptides of the protein M of SARS-CoV Urbani / Binding of Control Serum Blood-Bank to Looped peptides of the protein M of SARS-CoV Urbani: unit not given here
[3] = system: rabbit serum obtained by immunizing a rabbit with the SARS-CoV strain Frankfurt 1; format: binding; design: Binding of a rabbit serum to linear peptides / Binding of a rabbit serum to looped peptides / Rabbit serum linear peptides / Rabbit serum looped peptides / Binding of a rabbit serum to linear peptides of protein N of SARS-CoV Urbani (Rabbit serum linear peptides) / Binding of a rabbit serum to looped/cyclic peptides of protein N of SARS-CoV Urbani (Rabbit serum looped peptides): unit not given here

Sequence	Binding of serum 1a to linear peptides of protein X1 of SARS-CoV Urbani [1]	Binding of serum 1b to linear peptides of protein X1 of SARS-CoV Urbani [1]	Binding of serum 2 to linear peptides of protein X1 of SARS-CoV Urbani [1]	Binding of serum 6 to linear peptides of protein X1 of SARS-CoV Urbani [1]	Binding of serum 37 to linear peptides of protein X1 of SARS-CoV Urbani [1]	Binding of serum 62 to linear peptides of protein X1 of SARS-CoV Urbani [1]	Binding of serum London to linear peptides of protein X1 of SARS-CoV Urbani [1]	Binding of serum SARS-green to linear peptides of protein X1 of SARS-CoV Urbani [1]	Binding of serum SARS-yellow to linear peptides of protein X1 of SARS-CoV Urbani [1]	Binding of Control Serum Blood-Bank to Looped peptides [2]	Binding of Control serum Blood-bank to linear peptides [2]	Binding of Control serum LUMC to linear peptides [2]	Binding of Control serum LUMC to looped peptides [2]	Binding of a rabbit serum to linear peptides [3]	Binding of a rabbit serum to looped peptides [3]	also measured
LLLLFVTIYSHLLLV	0.7	0.5	0.8	0.4	0.5	0.4	0.2	0.3	0.3	0.6	0.5	0.6	0.5	0.1	0.5	Binding of serum 1a to looped/cyclic peptide (PEPSCAN-ELISA) [1]: 0.5; Binding of serum 1b to looped/cyclic peptide (PEPSCAN-ELISA) [1]: 0.3; Binding of serum 2 to looped/cyclic peptide (PEPSCAN-ELISA) [1]: 0.5; Binding of serum 6 to looped/cyclic peptide (PEPSCAN-ELISA) [1]: 0.3; Binding of serum 37 to looped/cyclic peptide (PEPSCAN-ELISA) [1]: 0.6; Binding of serum 62 to looped/cyclic peptide (PEPSCAN-ELISA) [1]: 0.6; Binding of serum London to looped/cyclic peptide (PEPSCAN-ELISA) [1]: 0.2; Binding of serum SARS-green to looped/cyclic peptide (PEPSCAN-ELISA) [1]: 0.2; Binding of serum SARS-yellow to looped/cyclic peptide (PEPSCAN-ELISA) [1]: 0.5
HTIDGSSGVANPAMD	0.7	0.7	0.5	0.5	0.7	0.7	0.3	0.6	0.4	0.3	0.4	0.5	0.2	0.1	0.4	Binding of serum 1a to looped/cyclic peptides of protein X1 of SARS-CoV Urbani [1]: 0.3; Binding of serum 1b to looped/cyclic peptides of protein X1 of SARS-CoV Urbani [1]: 0.2; Binding of serum 2 to looped/cyclic peptides of protein X1 of SARS-CoV Urbani [1]: 0.1; Binding of serum 6 to looped/cyclic peptides of protein X1 of SARS-CoV Urbani [1]: 0.1; Binding of serum 37 to looped/cyclic peptides of protein X1 of SARS-CoV Urbani [1]: 0.3; Binding of serum 62 to looped/cyclic peptides of protein X1 of SARS-CoV Urbani [1]: 0.2; Binding of serum London to looped/cyclic peptides of protein X1 of SARS-CoV Urbani [1]: 0.1; Binding of serum SARS-green to looped/cyclic peptides of protein X1 of SARS-CoV Urbani [1]: 0.1; Binding of serum SARS-yellow to looped/cyclic peptides of protein X1 of SARS-CoV Urbani [1]: 0.1
